Measurements from US20100311714A1, “1H-IMIDAZO[4,5-c]QUINOLINONE COMPOUNDS” (priority 2009, published 2010).

system: PKB Ser473 phosphorylation in Rat1-myr-HA-p110 delta cells; assay: Reverse protein array, PKB Ser473 phosphorylation in Rat1-myr-HA-p110 delta cells; type: cell-based; conditions: Rattus norvegicus, 0.5 h, 30 minutes compound incubation, read-out: p-PKB/IC50_delta

Row | IC50 | Compound
1 | 83.9 nM | COCCOc1ccc(-n2c(=O)n(C)c3cnc4ccc(-c5cncc(N6CCC6)c5)cc4c32)c(C)n1 [Example 22.2, 8-(5-Azetidin-1-yl-pyridin-3-yl)-1-[6-(2-methoxy-ethoxy)-2-methyl-pyridin-3-yl]-3-methyl-1,3-dihydro-imidazo[4,5-c]quinolin-2-one]
2 | 34.4 nM | Cc1ccc(-n2c(=O)n(C)c3cnc4ccc(-c5cncc(NC(C)C)c5)cc4c32)c(C)n1 [Example 14.8, 1-(2,6-Dimethyl-pyridin-3-yl)-8-(5-isopropylamino-pyridin-3-yl)-3-methyl-1,3-dihydro-imidazo[4,5-c]quinolin-2-one]
3 | 14.4 nM | Cc1ccc(-n2c(=O)n(C)c3cnc4ccc(-c5cnc(N)c(C(F)(F)F)c5)cc4c32)c(C)n1 [Example 14.5, 8-(6-Amino-5-trifluoromethyl-pyridin-3-yl)-1-(2,6-dimethyl-pyridin-3-yl)-3-methyl-1,3-dihydro-imidazo[4,5-c]quinolin-2-one]
4 | < 4.57 nM | CCNc1cc(-c2ccc3ncc4c(c3c2)n(-c2ccc(OCCOC)nc2C)c(=O)n4C)cnc1C [Example 13.4, 8-(5-Ethylamino-6-methyl-pyridin-3-yl)-1-[6-(2-methoxy-ethoxy)-2-methyl-pyridin-3-yl]-3-methyl-1,3-dihydro-imidazo[4,5-c]quinolin-2-one]
5 | 408 nM | CNc1ccc(-c2ccc3ncc4c(c3c2)n(-c2cnc(F)cc2C)c(=O)n4C)cn1 [Example 16.4, 1-(6-Fluoro-4-methyl-pyridin-3-yl)-3-methyl-8-(6-methylamino-pyridin-3-yl)-1,3-dihydro-imidazo[4,5-c]quinolin-2-one]
6 | 68.1 nM | CCOc1ccc(-c2ccc3ncc4c(c3c2)n(-c2ccc(C)nc2C)c(=O)n4C)cn1 [Example 14.2, 1-(2,6-Dimethyl-pyridin-3-yl)-8-(6-ethoxy-pyridin-3-yl)-3-methyl-1,3-dihydro-imidazo[4,5-c]quinolin-2-one]
7 | 29.4 nM | COCCOc1ccc(-n2c(=O)n(C)c3cnc4ccc(-c5cnc(N)c(C(F)(F)F)c5)cc4c32)c(C)n1 [Example 13.2, 8-(6-Amino-5-trifluoromethyl-pyridin-3-yl)-1-[6-(2-methoxy-ethoxy)-2-methyl-pyridin-3-yl]-3-methyl-1,3-dihydro-imidazo[4,5-c]quinolin-2-one]
8 | 61.7 nM | Cc1ncccc1-n1c(=O)n(C)c2cnc3ccc(-c4cnc5c(ccn5C)c4)cc3c21 [Example 2.14, 3-Methyl-1-(2-methyl-pyridin-3-yl)-8-(1-methyl-1H-pyrrolo[2,3-b]pyridin-5-yl)-1,3-dihydro-imidazo[4,5-c]quinolin-2-one]
9 | 64.5 nM | Cc1nc(N2CCC(O)C2)ccc1-n1c(=O)n(C)c2cnc3ccc(-c4cncc(OC(C)C)c4)cc3c21 (stereo not shown) [Example 27.1, 1-[6-(3-Hydroxy-pyrrolidin-1-yl)-2-methyl-pyridin-3-yl]-8-(5-isopropoxy-pyridin-3-yl)-3-methyl-1,3-dihydro-imidazo[4,5-c]quinolin-2-one]
10 | 29.4 nM | CNc1ccc(-c2ccc3ncc4c(c3c2)n(-c2cccnc2OC)c(=O)n4C)cn1 [Example 1.4, 1-(2-Methoxy-pyridin-3-yl)-3-methyl-8-(6-methylamino-pyridin-3-yl)-1,3-dihydro-imidazo[4,5-c]quinolin-2-one]
11 | 37.1 nM | CNc1ncc(-c2ccc3ncc4c(c3c2)n(-c2ccc(OCCOC)nc2C)c(=O)n4C)cn1 [Example 13.5, 1-[6-(2-Methoxy-ethoxy)-2-methyl-pyridin-3-yl]-3-methyl-8-(2-methylamino-pyrimidin-5-yl)-1,3-dihydro-imidazo[4,5-c]quinolin-2-one]
12 | 119 nM | Cc1nc(F)ccc1-n1c(=O)n(C)c2cnc3ccc(-c4cnc(N)c(CO)c4)cc3c21 [Example 7.17, 8-(6-Amino-5-hydroxymethyl-pyridin-3-yl)-1-(6-fluoro-2-methyl-pyridin-3-yl)-3-methyl-1,3-dihydro-imidazo[4,5-c]quinolin-2-one]
13 | 38.5 nM | CNc1ccc(-c2ccc3ncc4c(c3c2)n(-c2ccc(OCCOC)nc2C)c(=O)n4C)cn1 [Example 13.3, 1-[6-(2-Methoxy-ethoxy)-2-methyl-pyridin-3-yl]-3-methyl-8-(6-methylamino-pyridin-3-yl)-1,3-dihydro-imidazo[4,5-c]quinolin-2-one]
14 | 74.7 nM | CCOc1ccc(-c2ccc3ncc4c(c3c2)n(-c2ccc(N(C)C)nc2C)c(=O)n4C)cn1 [Example 19.3, 1-(6-Dimethylamino-2-methyl-pyridin-3-yl)-8-(6-ethoxy-pyridin-3-yl)-3-methyl-1,3-dihydro-imidazo[4,5-c]quinolin-2-one]
15 | 46.4 nM | Cc1nc(N(C)C)ccc1-n1c(=O)n(C)c2cnc3ccc(-c4cncc(N)c4)cc3c21 [Example 19.5, 8-(5-Amino-pyridin-3-yl)-1-(6-dimethylamino-2-methyl-pyridin-3-yl)-3-methyl-1,3-dihydro-imidazo[4,5-c]quinolin-2-one]
16 | 53.3 nM | COc1ccc(-c2ccc3ncc4c(c3c2)n(-c2cccnc2OC)c(=O)n4C)cn1 [Example 1.1, 1-(2-Methoxy-pyridin-3-yl)-8-(6-methoxy-pyridin-3-yl)-3-methyl-1,3-dihydro-imidazo[4,5-c]quinolin-2-one]

Row | IC50 | Compound
17 | 352 nM | COCC(=O)Nc1ccc(-n2c(=O)n(C)c3cnc4ccc(-c5cncc(OC(C)C)c5)cc4c32)c(C)n1 [Example 20.5, N-{5-[8-(5-Isopropoxy-pyridin-3-yl)-3-methyl-2-oxo-2,3-dihydro-imidazo[4,5-c]quinolin-1-yl]-6-methyl-pyridin-2-yl}-2-methoxy-acetamide]
18 | 218 nM | CNc1ncc(-c2ccc3ncc4c(c3c2)n(-c2ccc(NC(=O)COC)nc2C)c(=O)n4C)cn1 [Example 20.3, 2-Methoxy-N-{6-methyl-5-[3-methyl-8-(2-methylamino-pyrimidin-5-yl)-2-oxo-2,3-dihydro-imidazo[4,5-c]quinolin-1-yl]-pyridin-2-yl}-acetamide]
19 | 41.5 nM | CCNc1cc(-c2ccc3ncc4c(c3c2)n(-c2ccc(F)nc2C)c(=O)n4C)cnc1CO [Example 7.9, 8-(5-Ethylamino-6-hydroxymethyl-pyridin-3-yl)-1-(6-fluoro-2-methyl-pyridin-3-yl)-3-methyl-1,3-dihydro-imidazo[4,5-c]quinolin-2-one]
20 | 6.8 nM | CCNc1cc(-c2ccc3ncc4c(c3c2)n(-c2ccc(N(C)CCOC)nc2C)c(=O)n4C)cnc1C [Example 15.6, 8-(5-Ethylamino-6-methyl-pyridin-3-yl)-1-{6-[(2-methoxy-ethyl)-methyl-amino]-2-methyl-pyridin-3-yl}-3-methyl-1,3-dihydro-imidazo[4,5-c]quinolin-2-one]
21 | 45.4 nM | Cc1ccc(-n2c(=O)n(C)c3cnc4ccc(-c5cnc6c(ccn6C)c5)cc4c32)c(C)n1 [Example 14.7, 1-(2,6-Dimethyl-pyridin-3-yl)-3-methyl-8-(1-methyl-1H-pyrrolo[2,3-b]pyridin-5-yl)-1,3-dihydro-imidazo[4,5-c]quinolin-2-one]
22 | < 4.57 nM | CCNc1cc(-c2ccc3ncc4c(c3c2)n(-c2ccc(C)nc2C)c(=O)n4C)cnc1C [Example 14.6, 1-(2,6-Dimethyl-pyridin-3-yl)-8-(5-ethylamino-6-methyl-pyridin-3-yl)-3-methyl-1,3-dihydro-imidazo[4,5-c]quinolin-2-one]
23 | 223 nM | COc1ccc(-c2ccc3ncc4c(c3c2)n(-c2cccnc2)c(=O)n4C)cn1 [Example 5.4, 8-(6-Methoxy-pyridin-3-yl)-3-methyl-1-pyridin-3-yl-1,3-dihydro-imidazo[4,5-c]quinolin-2-one]
24 | 83.9 nM | COc1ncccc1-n1c(=O)n(C)c2cnc3ccc(-c4cnc(N(C)C)nc4)cc3c21 [Example 1.9, 8-(2-Dimethylamino-pyrimidin-5-yl)-1-(2-methoxy-pyridin-3-yl)-3-methyl-1,3-dihydro-imidazo[4,5-c]quinolin-2-one]
25 | < 4.57 nM | CCNc1cc(-c2ccc3ncc4c(c3c2)n(-c2ccc(N(C)CC)nc2C)c(=O)n4C)cnc1C [Example 12.2, 8-(5-Ethylamino-6-methyl-pyridin-3-yl)-1-[6-(ethyl-methyl-amino)-2-methyl-pyridin-3-yl]-3-methyl-1,3-dihydro-imidazo[4,5-c]quinolin-2-one]
26 | 30 nM | Cc1nc(N2CC(F)(F)C2)ccc1-n1c(=O)n(C)c2cnc3ccc(-c4cncc(C(C)(C)O)c4)cc3c21 [Example 24.2, 1-[6-(3,3-Difluoro-azetidin-1-yl)-2-methyl-pyridin-3-yl]-8-[5-(1-hydroxy-1-methyl-ethyl)-pyridin-3-yl]-3-methyl-1,3-dihydro-imidazo[4,5-c]quinolin-2-one]
27 | 45.7 nM | CCN(C)c1ccc(-n2c(=O)n(C)c3cnc4ccc(-c5ccc(NC)nc5)cc4c32)c(C)n1 [Example 12.1, 1-[6-(Ethyl-methyl-amino)-2-methyl-pyridin-3-yl]-3-methyl-8-(6-methylamino-pyridin-3-yl)-1,3-dihydro-imidazo[4,5-c]quinolin-2-one]
28 | 122 nM | Cc1ccc(-n2c(=O)n(C)c3cnc4ccc(-c5cnc(N(C)C)nc5)cc4c32)c(C)n1 [Example 14.3, 8-(2-Dimethylamino-pyrimidin-5-yl)-1-(2,6-dimethyl-pyridin-3-yl)-3-methyl-1,3-dihydro-imidazo[4,5-c]quinolin-2-one]
29 | 134 nM | COCc1ncc(-c2ccc3ncc4c(c3c2)n(-c2ccc(OC)nc2OC)c(=O)n4C)cc1OC [Example 8.12, 1-(2,6-Dimethoxy-pyridin-3-yl)-8-(5-methoxy-6-methoxymethyl-pyridin-3-yl)-3-methyl-1,3-dihydro-imidazo[4,5-c]quinolin-2-one]
30 | 78.5 nM | Cc1nc(F)ccc1-n1c(=O)n(C)c2cnc3ccc(-c4cncc(N)c4)cc3c21 [Example 7.16, 8-(5-Amino-pyridin-3-yl)-1-(6-fluoro-2-methyl-pyridin-3-yl)-3-methyl-1,3-dihydro-imidazo[4,5-c]quinolin-2-one]
31 | < 4.57 nM | CCNc1cc(-c2ccc3ncc4c(c3c2)n(-c2ccc(OC)nc2Cl)c(=O)n4C)cnc1C [Example 18.1, 1-(2-Chloro-6-methoxy-pyridin-3-yl)-8-(5-ethylamino-6-methyl-pyridin-3-yl)-3-methyl-1,3-dihydro-imidazo[4,5-c]quinolin-2-one]
